Measurements published in patent publication US20120016011A1, “RNA Interference Mediated Inhibition of Connective Tissue Growth Factor (CTGF) Gene Expression Using Short Interfering Nucleic Acid (siNA)” (Merck Sharp & Dohme Corp., priority 2009, published 2012).
[invAb] = inverted abasic unit; m = 2'-O-methyl; r = 2'-OH (RNA); f = 2'-fluoro

Columns and labels:
CTGF mRNA [1] = test: CTGF mRNA knockdown (Taqman RT-PCR) after siNA transfection of human NHLF cells; format: cell-based; conditions: 10 nM siNA, 24 hrs, average of 3 experiments, vs non-targeting control
Procedure, shortened: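 Normal human lung fibroblasts (5000 cells/well) were transfected 24 h after plating with 10 nM siNA complexed with RNAiMax and harvested 24 h later without a media change. CTGF mRNA was measured by TaqMan RT-qPCR on Cells-to-CT lysates, with β-actin and GAPDH assayed alongside. Knockdown was calculated by comparative Ct (ΔΔCt) against non-targeting control siNA.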

CTGF mRNA [2] = test: CTGF mRNA knockdown (Taqman RT-PCR) after siNA transfection of mouse NIH 3T3 cells; format: cell-based; conditions: mouse NIH3T3 cells, 10 nM siNA, 24 hrs, average of 3 experiments, vs non-targeting control
Procedure, shortened: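 Mouse NIH 3T3 cells, 5000/well, transfected 24 h after plating with siNA at 10 nM final using RNAiMax, 24 h exposure without media change. CTGF mRNA by TaqMan RT-qPCR with GAPDH, knockdown via comparative Ct (2^−ΔΔCt) against non-targeting control siNA.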

## 48065-DC: siNA duplex; sense SEQ ID NO: 95 B GccuGucAAGuuuGAGcuu TTB; antisense SEQ ID NO: 96 AAGcucAAAcuuGAcAGGcUU (sense GCCUGUCAAGUUUGAGCUUTT; antisense AAGCUCAAACUUGACAGGCUU; sense: DNA at AGT, 2'-fluoro at CU, [invAb] at 5' end, 3' end, backbone not given here; antisense: sugars from the 5' end rrrfffmmmfffmmfmmmfmm, backbone not given here)
CTGF mRNA [1]
  % KD Human: 19 ± 6%
CTGF mRNA [2]
  % KD Mouse: 46 ± 7%

## 48056-DC: siNA duplex; sense SEQ ID NO: 77 B cuGuGccuGccAuuAcAAc TTB; antisense SEQ ID NO: 78 GUUGuAAuGGcAGGcAcAGUU (sense CUGUGCCUGCCAUUACAACTT; antisense GUUGUAAUGGCAGGCACAGUU; sense: DNA at AGT, 2'-fluoro at CU, [invAb] at 5' end, 3' end, backbone not given here; antisense: sugars from the 5' end rrrmfmmfmmfmmmfmfmmmm, backbone not given here)
CTGF mRNA [1]
  % KD Human: 6 ± 7%
CTGF mRNA [2]
  % KD Mouse: 20 ± 6%

## 48054-DC: siNA duplex; sense SEQ ID NO: 73 B GAcuuGAcAGuGGAAcuAc TTB; antisense SEQ ID NO: 74 GUAGuuccAcuGucAAGucUU (sense GACUUGACAGUGGAACUACTT; antisense GUAGUUCCACUGUCAAGUCUU; sense: DNA at AGT, 2'-fluoro at CU, [invAb] at 5' end, 3' end, backbone not given here; antisense: sugars from the 5' end rrrmffffmffmffmmmffmm, backbone not given here)
CTGF mRNA [1]
  % KD Human: 70 ± 5%
CTGF mRNA [2]
  % KD Mouse: 17 ± 3%

## 48073-DC: siNA duplex; sense SEQ ID NO: 111 B GGAGAcAuGGcGuAAAGcc TTB; antisense SEQ ID NO: 112 GGCuuuAcGccAuGucuccUU (sense GGAGACAUGGCGUAAAGCCTT; antisense GGCUUUACGCCAUGUCUCCUU; sense: DNA at AGT, 2'-fluoro at CU, [invAb] at 5' end, 3' end, backbone not given here; antisense: sugars from the 5' end rrrfffmfmffmfmfffffmm, backbone not given here)
CTGF mRNA [1]
  % KD Human: 7 ± 7%
CTGF mRNA [2]
  % KD Mouse: 25 ± 8%

## 48040-DC: siNA duplex; sense SEQ ID NO: 45 B GAGuGGAGcGccuGuuccA TTB; antisense SEQ ID NO: 46 UGGAAcAGGcGcuccAcucUU (sense GAGUGGAGCGCCUGUUCCATT; antisense UGGAACAGGCGCUCCACUCUU; sense: DNA at AGT, 2'-fluoro at CU, [invAb] at 5' end, 3' end, backbone not given here; antisense: sugars from the 5' end rrrmmfmmmfmffffmfffmm, backbone not given here)
CTGF mRNA [1]
  % KD Human: 13 ± 18%
CTGF mRNA [2]
  % KD Mouse: −1 ± 3%

## 48044-DC: siNA duplex; sense SEQ ID NO: 53 B GuGuGcAccGccAAAGAuG TTB; antisense SEQ ID NO: 54 CAUcuuuGGcGGuGcAcAcUU (sense GUGUGCACCGCCAAAGAUGTT; antisense CAUCUUUGGCGGUGCACACUU; sense: DNA at AGT, 2'-fluoro at CU, [invAb] at 5' end, 3' end, backbone not given here; antisense: sugars from the 5' end rrrffffmmfmmfmfmfmfmm, backbone not given here)
CTGF mRNA [1]
  % KD Human: −16 ± 8%
CTGF mRNA [2]
  % KD Mouse: −18 ± 5%

## 48067-DC: siNA duplex; sense SEQ ID NO: 99 B GGGucAAGcuGccuGGGAA TTB; antisense SEQ ID NO: 100 UUCccAGGcAGcuuGAcccUU (sense GGGUCAAGCUGCCUGGGAATT; antisense UUCCCAGGCAGCUUGACCCUU; sense: DNA at AGT, 2'-fluoro at CU, [invAb] at 5' end, 3' end, backbone not given here; antisense: sugars from the 5' end rrrffmmmfmmfffmmfffmm, backbone not given here)
CTGF mRNA [1]
  % KD Human: −3 ± 31%
CTGF mRNA [2]
  % KD Mouse: 26 ± 5%

## 48068-DC: siNA duplex; sense SEQ ID NO: 101 B uGGuuucGAGAcAGuuuAc TTB; antisense SEQ ID NO: 102 GUAAAcuGucucGAAAccAUU (sense UGGUUUCGAGACAGUUUACTT; antisense GUAAACUGUCUCGAAACCAUU; sense: DNA at AGT, 2'-fluoro at CU, [invAb] at 5' end, 3' end, backbone not given here; antisense: sugars from the 5' end rrrmmffmffffmmmmffmmm, backbone not given here)
CTGF mRNA [1]
  % KD Human: 12 ± 22%
CTGF mRNA [2]
  % KD Mouse: 65 ± 3%
